Results as given in ChEMBL document CHEMBL4376806, “Antibiotic Adjuvants: Make Antibiotics Great Again!” (2019).

How the values were obtained:
[1] = target: Beta-lactamase TEM (Escherichia coli) (UniProt P62593); test: Inhibition of beta-lactamase TEM-1 in Escherichia coli GN5482 assessed as potentiation of ceftazidime-induced antibacterial activity by measuring ceftazidime MIC (reference value: 4 ug/ml)
[2] = tested on: Klebsiella pneumoniae; test: Inhibition of Beta-lactamase SHV-2 in Klebsiella pneumoniae IP86 assessed as potentiation of ceftazidime-induced antibacterial activity by measuring ceftazidime MIC (reference value: 64 ug/ml)
[3] = tested on: Klebsiella pneumoniae; test: Inhibition of beta-lactamase TEM-4 in Klebsiella pneumoniae 25637 assessed as potentiation of ceftazidime-induced antibacterial activity by measuring ceftazidime MIC (reference value: 32 ug/ml)
[4] = tested on: Escherichia coli; test: Inhibition of Beta-lactamase PER-1 in Escherichia coli KB10 assessed as potentiation of ceftazidime-induced antibacterial activity by measuring ceftazidime MIC (Rvb >64 ug/ml)
[5] = tested on: Klebsiella pneumoniae; test: Inhibition of beta-lactamase TEM-2 in Klebsiella pneumoniae IP1 assessed as potentiation of ceftazidime-induced antibacterial activity by measuring ceftazidime MIC (reference value: 16 ug/ml)
[6] = tested on: Escherichia coli; test: Inhibition of beta-lactamase TEM-8 in Escherichia coli CF3 assessed as potentiation of ceftazidime-induced antibacterial activity by measuring ceftazidime MIC (reference value: 64 ug/ml)
[7] = target: T1, MexAB/OprM (Pseudomonas aeruginosa (strain ATCC 15692 / DSM 22644 / CIP 104116 / JCM14847 / LMG 12228 / 1C / PRS 101 / PAO1)) (UniProt P52477+P52002+Q51487); test: Inhibition of MexAB/OprM in Pseudomonas aeruginosa PAO1 assessed as potentiation of trimethoprim-induced antibacterial activity by measuring trimethoprim MIC at 128 ug/ml incubated for 18 hrs (reference value: 128 ug/ml)
[8] = target: T1, MexAB/OprM (Pseudomonas aeruginosa (strain ATCC 15692 / DSM 22644 / CIP 104116 / JCM14847 / LMG 12228 / 1C / PRS 101 / PAO1)); test: Inhibition of MexAB/OprM in Pseudomonas aeruginosa PAO1 assessed as potentiation of novobiocin-induced antibacterial activity by measuring novobiocin MIC at 128 ug/ml incubated for 18 hrs (reference value: 512 ug/ml)
[9] = target: T1, MexAB/OprM (Pseudomonas aeruginosa (strain ATCC 15692 / DSM 22644 / CIP 104116 / JCM14847 / LMG 12228 / 1C / PRS 101 / PAO1)); test: Inhibition of MexAB/OprM in Pseudomonas aeruginosa PAO1 assessed as potentiation of chloramphenicol-induced antibacterial activity by measuring chloramphenicol MIC at 128 ug/ml incubated for 18 hrs (reference value: 64 ug/ml)
[10] = target: T1, MexAB/OprM (Pseudomonas aeruginosa (strain ATCC 15692 / DSM 22644 / CIP 104116 / JCM14847 / LMG 12228 / 1C / PRS 101 / PAO1)); test: Inhibition of MexAB/OprM in Pseudomonas aeruginosa PAO1 assessed as potentiation of ciprofloxacin-induced antibacterial activity by measuring ciprofloxacin MIC at 128 ug/ml incubated for 18 hrs (reference value: 1 ug/ml)
[11] = target: T1, MexAB/OprM (Pseudomonas aeruginosa (strain ATCC 15692 / DSM 22644 / CIP 104116 / JCM14847 / LMG 12228 / 1C / PRS 101 / PAO1)); test: Inhibition of MexAB/OprM in Pseudomonas aeruginosa PAO1 assessed as potentiation of carbenicillin-induced antibacterial activity by measuring carbenicillin MIC at 128 ug/ml incubated for 18 hrs (reference value: 64 ug/ml)
[12] = target: T1, MexAB/OprM (Pseudomonas aeruginosa (strain ATCC 15692 / DSM 22644 / CIP 104116 / JCM14847 / LMG 12228 / 1C / PRS 101 / PAO1)); test: Inhibition of MexAB/OprM in Pseudomonas aeruginosa PAO1 assessed as potentiation of tetracycline-induced antibacterial activity by measuring tetracycline MIC at 128 ug/ml incubated for 18 hrs (reference value: 8 ug/ml)
[13] = tested on: Klebsiella aerogenes; test: Inhibition of AcrAB-TolC in Enterobacter aerogenes EA3 assessed as potentiation of chloramphenicol-induced antibacterial activity by measuring chloramphenicol MIC at 0.2 mM incubated for 18 hrs (reference value: 512 ug/ml)
[14] = tested on: Klebsiella aerogenes; test: Inhibition of AcrAB-TolC in Enterobacter aerogenes EA3 assessed as potentiation of tetracycline-induced antibacterial activity by measuring tetracycline MIC at 0.2 mM incubated for 18 hrs (reference value: 8 ug/ml)
[15] = tested on: Klebsiella aerogenes; test: Inhibition of AcrAB-TolC in Enterobacter aerogenes EA3 assessed as potentiation of norfloxacin-induced antibacterial activity by measuring norfloxacin MIC at 0.2 mM incubated for 18 hrs (reference value: 256 ug/ml)
[16] = tested on: Pseudomonas aeruginosa; test: Synergistic antibacterial activity against Pseudomonas aeruginosa assessed as fractional inhibitory concentration index in presence of ampicillin by checkerboard assay; format: functional
[17] = tested on: Escherichia coli; test: Inhibition of beta-lactamase in Escherichia coli assessed as potentiation of ampicillin-induced antibacterial activity by measuring ampicillin MIC incubated for 24 hrs by CLSI method (reference value: 100 ug/ml)
[18] = tested on: Streptococcus pyogenes; test: Inhibition of beta-lactamase in Streptococcus pyogenes assessed as potentiation of ampicillin-induced antibacterial activity by measuring ampicillin MIC incubated for 24 hrs by CLSI method (Rvb > 200 ug/ml)
[19] = tested on: Staphylococcus aureus; test: Inhibition of beta-lactamase in Staphylococcus aureus assessed as potentiation of ampicillin-induced antibacterial activity by measuring ampicillin MIC incubated for 24 hrs by CLSI method (Rvb > 200 ug/ml)
[20] = tested on: Staphylococcus aureus; test: Synergistic antibacterial activity against Staphylococcus aureus assessed as fractional inhibitory concentration index in presence of ampicillin by checkerboard assay; format: functional
[21] = tested on: Pseudomonas aeruginosa; test: Inhibition of beta-lactamase in Pseudomonas aeruginosa assessed as potentiation of ampicillin-induced antibacterial activity by measuring ampicillin MIC incubated for 24 hrs by CLSI method (Rvb >200 ug/ml)
[22] = tested on: Streptococcus pyogenes; test: Synergistic antibacterial activity against Streptococcus pyogenes assessed as fractional inhibitory concentration index in presence of ampicillin by checkerboard assay; format: functional
[23] = tested on: Klebsiella pneumoniae; test: Potentiation of meropenem-induced antibacterial activity against Klebsiella pneumoniae N11-2218 harboring NDM1 infected in CD1 mouse assessed as mouse survival at 30 mg/kg, sc administered 30 mins post infection and measured 5 days post infection (reference value: 0%); format: functional; details: N11-2218, sc
[24] = target: Metallo-beta-lactamase type 2 (Klebsiella pneumoniae) (UniProt C7C422); test: Inhibition of beta-lactamase NDM-1 in Klebsiella pneumoniae N11-2218 assessed as potentiation of meropenem-induced antibacterial activity by measuring meropenem MIC at 8 ug/ml (Rvb =32 ug/ml)
Sequence of Metallo-beta-lactamase type 2 (Klebsiella pneumoniae) (C7C422 whole entry): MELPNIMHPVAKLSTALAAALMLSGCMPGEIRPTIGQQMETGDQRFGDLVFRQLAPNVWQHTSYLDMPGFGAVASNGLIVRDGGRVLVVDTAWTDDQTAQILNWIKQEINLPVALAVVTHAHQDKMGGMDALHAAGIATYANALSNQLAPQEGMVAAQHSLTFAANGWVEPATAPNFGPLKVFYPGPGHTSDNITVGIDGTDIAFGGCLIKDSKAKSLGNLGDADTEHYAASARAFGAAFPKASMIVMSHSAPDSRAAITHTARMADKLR

Sequence of Beta-lactamase TEM (Escherichia coli) (P62593 whole entry): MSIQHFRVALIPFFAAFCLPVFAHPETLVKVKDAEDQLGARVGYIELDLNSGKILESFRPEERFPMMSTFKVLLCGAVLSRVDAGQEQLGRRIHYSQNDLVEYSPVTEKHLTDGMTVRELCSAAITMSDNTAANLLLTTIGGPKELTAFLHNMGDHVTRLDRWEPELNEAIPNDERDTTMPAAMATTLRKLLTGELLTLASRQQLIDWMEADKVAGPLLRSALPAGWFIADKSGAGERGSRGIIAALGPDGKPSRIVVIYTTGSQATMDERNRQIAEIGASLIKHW

NC(=O)[C@@H]1CC[C@@H]2CN1C(=O)N2OS(=O)(=O)O
MIC [1]: 0.5 µg/mL
MIC [2]: 1 µg/mL
MIC [3]: 0.5 µg/mL
MIC [4]: 4 µg/mL
MIC [5]: 0.5 µg/mL
MIC [6]: 2 µg/mL

O=C(O[C@@H]1Cc2c(O)cc(O)cc2O[C@@H]1c1cc(O)c(O)c(O)c1)c1cc(O)c(O)c(O)c1
MIC [7]: 32 µg/mL
MIC [8]: 128 µg/mL
MIC [9]: 16 µg/mL
MIC [10]: 0.5 µg/mL
MIC [11]: 64 µg/mL
MIC [12]: 2 µg/mL

Cc1c([N+](=O)[O-])ccc2c(NCCN3CCCCC3)ccnc12
MIC [13]: 2 µg/mL
MIC [14]: 0.5 µg/mL
MIC [15]: 16 µg/mL

CC[C@H](/C=C/[C@@H](C)[C@H]1CC[C@H]2[C@@H]3CC=C4C[C@@H](O)CC[C@]4(C)[C@H]3CC[C@]12C)C(C)C [STIGMASTEROL]
fractional inhibitory concentration index (FICI) [16]: <0.5
MIC [17]: 6.25 µg/mL
MIC [18]: 1.56 µg/mL
MIC [19]: 3.13 µg/mL
fractional inhibitory concentration index (FICI) [20]: <0.5
MIC [21]: 6.25 µg/mL
fractional inhibitory concentration index (FICI) [22]: <0.5

N[C@H](CN[C@H](CN[C@@H](CC(=O)O)C(=O)O)C(=O)O)C(=O)O
survival at 30 mg/kg [23]: 95%
MIC [24]: 1 µg/mL
